Experimental data published in article PMC8366453, “Efficacy of RyR2 inhibitor EL20 in induced pluripotent stem cell‐derived cardiomyocytes from a patient with catecholaminergic polymorphic ventricular tachycardia” (Journal of Cellular and Molecular Medicine, 2021).

Molecular target: cardiac ryanodine receptor type‐2 (RyR2) (Homo sapiens, UniProt Q92736, R176Q)
Assay: Confocal Ca2+ spark frequency dose-response in paced CPVT patient iPSC-derived cardiomyocytes (heterozygous R176Q)
Type: cell-based

Sequence of cardiac ryanodine receptor type‐2 (RyR2) (Q92736 whole entry R176Q): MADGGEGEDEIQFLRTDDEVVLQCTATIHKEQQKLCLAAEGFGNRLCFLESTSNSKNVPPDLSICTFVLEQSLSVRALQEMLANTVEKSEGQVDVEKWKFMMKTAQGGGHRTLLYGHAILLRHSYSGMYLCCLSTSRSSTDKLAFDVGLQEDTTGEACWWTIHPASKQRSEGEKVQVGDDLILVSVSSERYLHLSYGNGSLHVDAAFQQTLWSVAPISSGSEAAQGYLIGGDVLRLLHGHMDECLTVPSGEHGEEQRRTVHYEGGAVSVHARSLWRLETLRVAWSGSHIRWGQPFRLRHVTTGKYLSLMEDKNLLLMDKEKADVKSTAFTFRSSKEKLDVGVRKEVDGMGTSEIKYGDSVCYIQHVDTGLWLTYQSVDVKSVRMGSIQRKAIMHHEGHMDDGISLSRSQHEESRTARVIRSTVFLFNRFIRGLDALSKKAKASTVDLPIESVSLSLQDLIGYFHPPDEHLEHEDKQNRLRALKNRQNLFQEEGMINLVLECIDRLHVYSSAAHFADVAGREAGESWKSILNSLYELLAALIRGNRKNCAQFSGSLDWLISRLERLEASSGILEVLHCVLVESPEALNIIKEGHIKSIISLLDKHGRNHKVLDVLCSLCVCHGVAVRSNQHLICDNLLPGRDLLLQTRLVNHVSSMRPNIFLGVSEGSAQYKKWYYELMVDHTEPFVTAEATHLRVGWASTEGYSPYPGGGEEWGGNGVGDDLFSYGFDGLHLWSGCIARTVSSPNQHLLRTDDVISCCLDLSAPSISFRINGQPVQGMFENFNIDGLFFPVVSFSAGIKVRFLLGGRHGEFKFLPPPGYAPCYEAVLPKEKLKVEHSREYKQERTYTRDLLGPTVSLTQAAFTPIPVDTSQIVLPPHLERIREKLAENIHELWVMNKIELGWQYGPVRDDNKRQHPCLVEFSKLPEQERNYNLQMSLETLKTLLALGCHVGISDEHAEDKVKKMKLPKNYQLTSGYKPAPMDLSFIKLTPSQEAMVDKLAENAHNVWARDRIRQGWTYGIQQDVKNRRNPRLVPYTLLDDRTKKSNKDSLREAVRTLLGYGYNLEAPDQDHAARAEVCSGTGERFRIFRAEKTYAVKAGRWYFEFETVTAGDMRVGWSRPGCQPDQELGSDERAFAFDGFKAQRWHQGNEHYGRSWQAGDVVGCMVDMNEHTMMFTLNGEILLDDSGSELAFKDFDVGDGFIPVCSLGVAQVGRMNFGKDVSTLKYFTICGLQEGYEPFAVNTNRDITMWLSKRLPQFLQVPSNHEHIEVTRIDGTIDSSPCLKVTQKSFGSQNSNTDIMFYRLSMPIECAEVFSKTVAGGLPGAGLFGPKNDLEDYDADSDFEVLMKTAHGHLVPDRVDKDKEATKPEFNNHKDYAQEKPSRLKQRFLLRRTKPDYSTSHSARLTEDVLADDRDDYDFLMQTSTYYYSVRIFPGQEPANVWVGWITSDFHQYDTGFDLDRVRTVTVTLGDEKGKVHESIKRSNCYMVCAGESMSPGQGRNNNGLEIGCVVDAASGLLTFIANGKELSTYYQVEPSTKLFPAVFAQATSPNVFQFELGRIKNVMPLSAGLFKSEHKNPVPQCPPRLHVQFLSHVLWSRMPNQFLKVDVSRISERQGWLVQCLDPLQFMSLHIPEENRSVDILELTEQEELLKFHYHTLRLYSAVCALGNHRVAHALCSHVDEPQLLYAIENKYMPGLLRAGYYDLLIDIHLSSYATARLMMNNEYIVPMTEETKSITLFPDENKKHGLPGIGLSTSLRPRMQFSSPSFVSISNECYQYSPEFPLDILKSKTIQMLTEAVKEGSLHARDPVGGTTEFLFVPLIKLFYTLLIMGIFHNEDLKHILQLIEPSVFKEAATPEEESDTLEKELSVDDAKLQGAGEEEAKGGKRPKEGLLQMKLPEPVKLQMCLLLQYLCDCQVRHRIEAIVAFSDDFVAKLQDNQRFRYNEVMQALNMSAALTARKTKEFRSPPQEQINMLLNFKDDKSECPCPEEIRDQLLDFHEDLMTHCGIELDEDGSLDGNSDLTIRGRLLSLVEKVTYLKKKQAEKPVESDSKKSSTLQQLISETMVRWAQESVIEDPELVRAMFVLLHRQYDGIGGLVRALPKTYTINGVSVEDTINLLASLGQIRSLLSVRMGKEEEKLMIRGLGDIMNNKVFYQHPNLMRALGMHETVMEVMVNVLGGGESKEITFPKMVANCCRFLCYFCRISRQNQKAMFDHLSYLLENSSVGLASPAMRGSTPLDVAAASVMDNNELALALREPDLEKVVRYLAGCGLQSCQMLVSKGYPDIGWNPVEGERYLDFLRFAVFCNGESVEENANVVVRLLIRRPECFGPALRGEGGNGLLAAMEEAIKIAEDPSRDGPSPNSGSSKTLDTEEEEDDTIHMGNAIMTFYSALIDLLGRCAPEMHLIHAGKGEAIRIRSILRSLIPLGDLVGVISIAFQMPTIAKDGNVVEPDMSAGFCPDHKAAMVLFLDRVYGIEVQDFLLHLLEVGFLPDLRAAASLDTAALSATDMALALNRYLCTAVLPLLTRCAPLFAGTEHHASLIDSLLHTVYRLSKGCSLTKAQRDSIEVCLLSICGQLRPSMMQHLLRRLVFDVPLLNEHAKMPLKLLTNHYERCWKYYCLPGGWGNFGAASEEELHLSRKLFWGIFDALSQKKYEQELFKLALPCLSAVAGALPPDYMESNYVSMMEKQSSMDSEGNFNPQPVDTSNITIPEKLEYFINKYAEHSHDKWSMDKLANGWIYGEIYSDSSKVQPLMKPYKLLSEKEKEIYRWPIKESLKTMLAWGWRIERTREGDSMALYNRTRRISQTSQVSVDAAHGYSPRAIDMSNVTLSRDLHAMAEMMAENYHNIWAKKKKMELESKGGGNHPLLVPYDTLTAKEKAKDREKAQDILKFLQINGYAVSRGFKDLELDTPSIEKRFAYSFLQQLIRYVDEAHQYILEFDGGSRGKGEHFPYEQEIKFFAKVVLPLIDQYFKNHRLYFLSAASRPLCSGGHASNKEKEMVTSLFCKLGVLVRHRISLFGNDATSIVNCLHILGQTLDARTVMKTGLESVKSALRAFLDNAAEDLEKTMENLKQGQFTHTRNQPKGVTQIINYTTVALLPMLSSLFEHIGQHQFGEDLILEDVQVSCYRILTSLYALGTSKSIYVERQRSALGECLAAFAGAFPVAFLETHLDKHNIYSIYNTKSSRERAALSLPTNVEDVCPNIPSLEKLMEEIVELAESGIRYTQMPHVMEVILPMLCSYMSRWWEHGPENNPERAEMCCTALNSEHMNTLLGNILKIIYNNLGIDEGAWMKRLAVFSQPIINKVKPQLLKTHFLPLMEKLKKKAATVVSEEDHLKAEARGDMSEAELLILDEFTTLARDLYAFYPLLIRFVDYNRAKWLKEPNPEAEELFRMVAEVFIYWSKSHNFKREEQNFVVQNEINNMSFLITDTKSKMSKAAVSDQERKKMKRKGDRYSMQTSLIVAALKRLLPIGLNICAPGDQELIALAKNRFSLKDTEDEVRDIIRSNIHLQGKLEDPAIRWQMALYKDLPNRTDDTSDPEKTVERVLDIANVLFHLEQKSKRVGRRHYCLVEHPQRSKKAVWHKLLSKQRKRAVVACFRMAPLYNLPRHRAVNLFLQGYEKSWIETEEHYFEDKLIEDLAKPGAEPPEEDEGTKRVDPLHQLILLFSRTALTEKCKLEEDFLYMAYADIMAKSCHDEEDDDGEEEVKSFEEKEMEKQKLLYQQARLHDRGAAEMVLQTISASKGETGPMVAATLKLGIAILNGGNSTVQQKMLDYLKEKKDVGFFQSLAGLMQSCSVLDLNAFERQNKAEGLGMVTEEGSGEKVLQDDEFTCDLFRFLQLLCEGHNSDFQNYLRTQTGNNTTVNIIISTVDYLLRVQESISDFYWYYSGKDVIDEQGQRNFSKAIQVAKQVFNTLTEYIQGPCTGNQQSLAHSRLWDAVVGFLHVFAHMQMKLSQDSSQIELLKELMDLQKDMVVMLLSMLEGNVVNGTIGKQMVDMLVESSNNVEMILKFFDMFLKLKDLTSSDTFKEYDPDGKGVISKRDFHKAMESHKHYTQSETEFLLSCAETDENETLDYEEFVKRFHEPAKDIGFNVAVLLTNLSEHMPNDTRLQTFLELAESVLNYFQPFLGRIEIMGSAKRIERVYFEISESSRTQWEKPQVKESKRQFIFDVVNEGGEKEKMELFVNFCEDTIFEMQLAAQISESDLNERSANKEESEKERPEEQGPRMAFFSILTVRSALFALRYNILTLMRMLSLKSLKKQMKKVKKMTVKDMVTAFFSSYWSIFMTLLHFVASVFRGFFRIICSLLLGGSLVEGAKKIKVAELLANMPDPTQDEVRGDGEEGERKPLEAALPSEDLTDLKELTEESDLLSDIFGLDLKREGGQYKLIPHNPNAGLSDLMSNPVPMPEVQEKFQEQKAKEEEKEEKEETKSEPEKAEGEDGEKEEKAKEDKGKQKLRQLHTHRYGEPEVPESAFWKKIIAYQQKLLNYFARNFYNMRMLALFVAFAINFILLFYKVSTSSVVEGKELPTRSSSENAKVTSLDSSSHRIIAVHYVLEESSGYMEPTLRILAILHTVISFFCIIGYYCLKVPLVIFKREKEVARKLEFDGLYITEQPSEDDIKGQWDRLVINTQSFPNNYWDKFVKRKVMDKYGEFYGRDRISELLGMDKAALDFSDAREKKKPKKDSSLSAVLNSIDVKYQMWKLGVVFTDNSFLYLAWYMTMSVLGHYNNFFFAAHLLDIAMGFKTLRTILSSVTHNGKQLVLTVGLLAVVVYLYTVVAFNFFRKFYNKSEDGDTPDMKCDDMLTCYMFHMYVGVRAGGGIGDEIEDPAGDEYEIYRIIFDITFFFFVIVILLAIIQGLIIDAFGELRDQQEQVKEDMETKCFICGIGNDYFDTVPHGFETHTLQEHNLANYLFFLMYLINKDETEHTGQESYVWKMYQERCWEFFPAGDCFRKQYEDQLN

`CCCCNc1ccc(C(=O)OCCN(CC)CC)c(OC)c1` [EL20] was tested. Which IC50 did it give?
The IC50 was 0.082 µM.
